In ChEMBL document CHEMBL3886225, “Morpholinylquinazolines” (2015):

Target: DNA-dependent protein kinase catalytic subunit (Homo sapiens, UniProt P78527)
Assay: Biochemical Assay: The kinase assay was carried out in streptavidin-coated […] microtitre FlashPlates®. To this end, 1.5 μg of the DNA-PK/protein complex and 100 ng of biotinylated substrate, such as, for example, PESQEAFADLWKK biotin-NH2 (biotin-DNA-PK peptide), in a total volume of 36.5 μl (34.25 mM HEPES/KOH, 7.85 mM Tris-HCl, 68.5 mM KCl, 5 μM ATP, 6.85 mM MgCl2, 0.5 mM EDTA, 0.14 mM EGTA, 0.69 mM DTT, pH 7.4), were incubated at room temperature for 90 min with 500 ng of DNA from calf thymus, 0.1 μCi of 33P-ATP and 1.8% of DMSO per well with or without the test compound. The reaction was stopped using 50 μl/well of 200 mM EDTA. After incubation for a further 30 min at room temperature, the liquid was removed. Each well was washed three times with 100 μl of 0.9% sodium chloride solution. A non-specific reaction (blank value) was determined using 10 μM of a proprietary kinase inhibitor.

Sequence of DNA-dependent protein kinase catalytic subunit (P78527 whole entry): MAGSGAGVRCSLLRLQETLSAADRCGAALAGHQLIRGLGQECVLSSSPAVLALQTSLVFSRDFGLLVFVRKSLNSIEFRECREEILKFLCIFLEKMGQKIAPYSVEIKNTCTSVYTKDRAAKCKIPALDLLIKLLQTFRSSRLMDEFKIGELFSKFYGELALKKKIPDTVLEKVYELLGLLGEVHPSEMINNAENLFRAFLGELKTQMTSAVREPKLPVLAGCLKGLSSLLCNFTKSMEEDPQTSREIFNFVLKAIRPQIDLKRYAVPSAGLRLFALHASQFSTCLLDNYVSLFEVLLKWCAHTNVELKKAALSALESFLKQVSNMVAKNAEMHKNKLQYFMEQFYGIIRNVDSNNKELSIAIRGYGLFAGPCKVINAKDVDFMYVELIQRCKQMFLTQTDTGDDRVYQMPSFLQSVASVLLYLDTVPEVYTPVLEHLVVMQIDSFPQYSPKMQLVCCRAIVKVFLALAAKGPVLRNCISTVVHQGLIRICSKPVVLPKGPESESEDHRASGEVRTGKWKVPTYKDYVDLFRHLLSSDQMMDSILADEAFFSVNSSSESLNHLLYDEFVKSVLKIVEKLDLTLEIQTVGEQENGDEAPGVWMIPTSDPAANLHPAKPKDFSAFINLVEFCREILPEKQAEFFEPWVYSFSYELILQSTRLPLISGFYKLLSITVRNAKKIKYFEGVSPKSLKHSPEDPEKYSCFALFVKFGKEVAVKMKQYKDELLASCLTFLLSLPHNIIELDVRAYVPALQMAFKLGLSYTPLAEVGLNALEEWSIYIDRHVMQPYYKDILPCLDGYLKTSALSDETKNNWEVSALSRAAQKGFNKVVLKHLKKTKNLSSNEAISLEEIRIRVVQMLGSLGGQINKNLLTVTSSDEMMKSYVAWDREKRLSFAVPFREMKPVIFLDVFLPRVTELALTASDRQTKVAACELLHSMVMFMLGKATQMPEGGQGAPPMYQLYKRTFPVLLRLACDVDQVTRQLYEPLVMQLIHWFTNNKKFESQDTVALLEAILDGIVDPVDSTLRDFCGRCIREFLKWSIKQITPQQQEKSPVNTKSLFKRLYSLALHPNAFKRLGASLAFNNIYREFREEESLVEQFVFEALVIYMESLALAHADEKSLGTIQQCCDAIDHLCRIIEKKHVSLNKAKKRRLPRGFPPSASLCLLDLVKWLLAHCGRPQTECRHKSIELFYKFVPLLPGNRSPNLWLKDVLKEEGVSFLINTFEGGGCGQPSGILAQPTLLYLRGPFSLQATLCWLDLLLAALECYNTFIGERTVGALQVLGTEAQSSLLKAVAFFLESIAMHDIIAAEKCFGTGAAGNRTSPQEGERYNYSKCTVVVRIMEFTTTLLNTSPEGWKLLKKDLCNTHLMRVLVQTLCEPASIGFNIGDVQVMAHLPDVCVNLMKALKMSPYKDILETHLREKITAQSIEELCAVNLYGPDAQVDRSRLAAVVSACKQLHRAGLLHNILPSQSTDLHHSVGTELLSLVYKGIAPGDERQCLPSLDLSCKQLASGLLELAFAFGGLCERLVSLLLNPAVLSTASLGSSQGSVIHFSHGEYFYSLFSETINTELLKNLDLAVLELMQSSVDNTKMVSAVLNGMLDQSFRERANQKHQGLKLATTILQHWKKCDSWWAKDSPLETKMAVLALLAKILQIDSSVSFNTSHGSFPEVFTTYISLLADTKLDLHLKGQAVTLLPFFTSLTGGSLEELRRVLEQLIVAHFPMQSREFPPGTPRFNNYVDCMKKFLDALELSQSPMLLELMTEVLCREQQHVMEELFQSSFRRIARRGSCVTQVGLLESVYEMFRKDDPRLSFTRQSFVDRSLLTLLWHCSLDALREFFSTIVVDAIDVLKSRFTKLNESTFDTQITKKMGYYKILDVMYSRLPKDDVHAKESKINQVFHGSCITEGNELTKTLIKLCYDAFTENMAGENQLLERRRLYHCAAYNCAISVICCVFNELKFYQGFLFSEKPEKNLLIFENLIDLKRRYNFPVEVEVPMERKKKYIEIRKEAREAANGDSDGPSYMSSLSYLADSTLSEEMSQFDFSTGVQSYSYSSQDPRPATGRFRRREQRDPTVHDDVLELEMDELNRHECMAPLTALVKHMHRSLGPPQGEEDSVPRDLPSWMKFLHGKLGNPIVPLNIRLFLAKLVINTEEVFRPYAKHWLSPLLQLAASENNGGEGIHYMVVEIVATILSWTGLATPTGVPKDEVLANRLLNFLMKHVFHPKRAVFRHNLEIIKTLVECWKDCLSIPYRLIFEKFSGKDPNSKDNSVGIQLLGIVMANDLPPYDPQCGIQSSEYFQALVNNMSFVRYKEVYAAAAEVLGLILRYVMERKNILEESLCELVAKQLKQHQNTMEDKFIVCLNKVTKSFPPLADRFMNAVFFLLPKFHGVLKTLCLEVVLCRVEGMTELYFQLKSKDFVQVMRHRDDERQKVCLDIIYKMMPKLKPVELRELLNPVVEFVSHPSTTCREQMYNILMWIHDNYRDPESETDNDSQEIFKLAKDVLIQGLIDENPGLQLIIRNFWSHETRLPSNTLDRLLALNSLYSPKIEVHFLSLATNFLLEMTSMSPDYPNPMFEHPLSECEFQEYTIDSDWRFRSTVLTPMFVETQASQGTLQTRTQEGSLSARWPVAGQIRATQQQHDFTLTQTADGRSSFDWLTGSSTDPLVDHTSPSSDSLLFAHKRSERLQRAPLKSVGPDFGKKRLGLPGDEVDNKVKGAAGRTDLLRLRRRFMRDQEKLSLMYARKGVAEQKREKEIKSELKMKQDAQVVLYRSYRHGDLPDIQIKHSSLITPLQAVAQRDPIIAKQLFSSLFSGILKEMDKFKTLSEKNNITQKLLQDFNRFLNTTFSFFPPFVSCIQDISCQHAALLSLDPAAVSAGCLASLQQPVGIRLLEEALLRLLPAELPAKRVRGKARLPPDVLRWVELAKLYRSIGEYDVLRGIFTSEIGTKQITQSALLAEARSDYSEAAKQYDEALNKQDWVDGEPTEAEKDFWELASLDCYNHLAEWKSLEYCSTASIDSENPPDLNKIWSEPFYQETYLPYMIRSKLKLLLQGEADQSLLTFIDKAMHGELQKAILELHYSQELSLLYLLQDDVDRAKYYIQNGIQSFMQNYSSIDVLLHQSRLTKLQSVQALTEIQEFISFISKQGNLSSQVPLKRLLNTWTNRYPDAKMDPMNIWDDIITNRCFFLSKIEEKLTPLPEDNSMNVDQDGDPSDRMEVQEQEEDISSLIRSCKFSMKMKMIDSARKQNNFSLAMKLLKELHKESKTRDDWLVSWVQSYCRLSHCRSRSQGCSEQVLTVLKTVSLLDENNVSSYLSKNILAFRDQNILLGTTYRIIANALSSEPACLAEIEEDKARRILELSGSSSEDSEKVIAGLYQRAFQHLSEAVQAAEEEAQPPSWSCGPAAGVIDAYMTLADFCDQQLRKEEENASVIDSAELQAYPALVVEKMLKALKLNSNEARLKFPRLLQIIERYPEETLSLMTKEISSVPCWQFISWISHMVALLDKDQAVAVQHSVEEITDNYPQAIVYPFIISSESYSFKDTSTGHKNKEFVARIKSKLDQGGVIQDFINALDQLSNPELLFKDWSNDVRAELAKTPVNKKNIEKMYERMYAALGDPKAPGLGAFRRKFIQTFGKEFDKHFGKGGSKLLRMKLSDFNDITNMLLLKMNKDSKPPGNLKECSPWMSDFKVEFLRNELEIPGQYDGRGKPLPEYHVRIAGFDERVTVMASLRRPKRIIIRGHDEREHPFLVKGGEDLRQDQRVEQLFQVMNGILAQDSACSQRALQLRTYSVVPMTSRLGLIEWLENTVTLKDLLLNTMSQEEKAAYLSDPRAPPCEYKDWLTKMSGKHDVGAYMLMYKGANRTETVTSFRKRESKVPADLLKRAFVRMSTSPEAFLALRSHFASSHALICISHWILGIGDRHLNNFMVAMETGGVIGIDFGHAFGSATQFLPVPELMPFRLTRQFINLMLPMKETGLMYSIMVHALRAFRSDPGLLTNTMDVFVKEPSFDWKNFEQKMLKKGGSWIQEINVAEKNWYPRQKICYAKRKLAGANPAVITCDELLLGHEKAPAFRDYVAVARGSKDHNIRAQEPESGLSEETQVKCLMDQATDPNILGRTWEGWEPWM

IC50: < 100 nM
SMILES: O=S(=O)(NC1CCCN(c2nc(Cl)nc3cc(N4CCOCC4)ccc23)C1)c1cccs1 (stereo unspecified)
